Data set [1] is described as follows: Madin-Darby Canine Kidney Cells (MDCK) permeability assay. It is filed as in vitro ADME. Conditions: dog, apparent permeability, apical to basolateral. The protocol:
Drug permeability through MDCK cell monolayers is known to be a useful tool as a model for cellular barrier for assessing intestinal epithelial drug transport, and thus to estimate intestinal permeability for orally administered compounds.
In this assay, monolayer cultures, suitable for investigation of compound permeability, were grown on Falcon/BD 96-well membrane inserts. The monolayers were maintained at 37° C. in a 5% CO2 atmosphere at 95% relative humidity until confluent. Apparent permeabilities of test compounds were determined in duplicate at a single concentration of 2 μM in the apical to basolateral direction. The transport investigations were initiated by the addition of the compound (2 μM of a solution containing 0.4% DMSO) to the apical compartment and the plates were maintained under culture conditions during the course of the experiment. The basolateral compartments following 2.5 hours of exposure and the final apical compartments were collected and analyzed for compound content by LC-MS/MS. The apparent permeability of each compound was then calculated.
Compounds of the present invention, such as those of Examples 18 and 27 were used in this assay. By comparison, comparison DPP-IV inhibitor compounds, which are generically disclosed in International Application WO02/076450, were also synthesized, and then used in this assay.

The target in data set [2] is T1, DPP-IV (Homo sapiens, UniProt P27487).
T1 construct: purchased Enzyme Systems Products SPE-01
Put plainly: In vitro assay for dipeptidyl peptidase inhibition. As to conditions: hydrochloride salts; Gly-Pro-4-methoxy B naphthylamide substrate; overnight at 37° C.; read-out: IC50 (concentration of test compound required for 50% inhibition). Format: biochemical. The protocol: 150 μL of an enzyme-substrate solution was pipetted into microtiter wells of a polystyrene 96-well plate, and maintained at 4° C. The enzyme-substrate solution comprised 50 μM Gly-Pro-4-methoxy B naphthylamide HCl in 50 mM Tris assay buffer pH 7.3 containing 0.1M sodium chloride, 0.1% (v/v) Triton and 50 μU/mL DPP-IV (Enzyme Systems Products Cat#SPE-01, DPP-IV 5 mU/mL stock). 5 μL/well of compounds of Formula (I) were added, bringing the final compound of Formula (I) concentrations to 3 μM-10 nM per well.
Controls. Enzyme was omitted from four (4) wells, as a reagent blank. 5 μL of 3 mM Diprotin A was added to four wells as a positive quality control, providing a final Diprotin A concentration of 100 μM. To measure total enzyme activity (i.e. a negative control), without the influence of any compounds of Formula (I), 5 μL of distilled water was added to four wells.
The entire assay was incubated overnight (about 14-18 hours) at 37° C.

Data set [3] concerns KK/H1J mice. The data set is described as follows: In vivo assay for glucose lowering (oral glucose tolerance test). Conditions: fasted KK/H1J mice. The text has this:
The glucose lowering effects of DPP-IV inhibitors for some compounds of the present invention were exemplified in 4-6 week old KK/H1J mice (Jackson Labs) in the context of an oral glucose tolerance test. Oral glucose tolerance tests (“OGTT”) have been in use in humans since, at least, the 1930s, Pincus et al., Am. J. Med. Sci, 188: 782 (1934), and are routinely used in the diagnosis of human diabetes, though not to evaluate the efficacy of therapeutic agents in patients. KK mice have been used to evaluate glitazones (Fujita et al. Diabetes 32:804-810 (1983); Fujiwara et al., Diabetes 37: 1549-48 (1988); Izumi et al. Biopharm Drug. Dispos. 18:247-257 (1997)), metformin (Reddi et al. Diabet. Metabl. 19:44-51 (1993)), glucosidase inhibitors (Hamada et al. Jap. Pharmacol. Ther. 17:17-28 (1988); Matsuo et al. Am. J. Clin. Nutr. 55:314S-317S (1992)), and the extra-pancreatic effects of sulfonylureas (Kameda et al Arzneim. Forsch./Drug Res. 32:39044 (1982); Muller et al. Horm. Metabl. Res. 28:469-487 (1996)).
KK mice are derived from an inbred line first established by Kondo et al. (Kondo et al. Bull. Exp. Anim. 6:107-112 (1957)).
The mice were fasted overnight (about 14-18 hours), but allowed free access to water. […] The blood samples were centrifuged, the plasma collected and analyzed for glucose content on a Roche-Hitachi 912 glucose analyzer. […]

Several values for one entry are separate records, joined by “and”; a condition that tells them apart may be missing. Equal entries are not always repeated. Structures can show the parent of a compound that is named as a salt.

T1 sequence (P27487 whole entry, species assumed): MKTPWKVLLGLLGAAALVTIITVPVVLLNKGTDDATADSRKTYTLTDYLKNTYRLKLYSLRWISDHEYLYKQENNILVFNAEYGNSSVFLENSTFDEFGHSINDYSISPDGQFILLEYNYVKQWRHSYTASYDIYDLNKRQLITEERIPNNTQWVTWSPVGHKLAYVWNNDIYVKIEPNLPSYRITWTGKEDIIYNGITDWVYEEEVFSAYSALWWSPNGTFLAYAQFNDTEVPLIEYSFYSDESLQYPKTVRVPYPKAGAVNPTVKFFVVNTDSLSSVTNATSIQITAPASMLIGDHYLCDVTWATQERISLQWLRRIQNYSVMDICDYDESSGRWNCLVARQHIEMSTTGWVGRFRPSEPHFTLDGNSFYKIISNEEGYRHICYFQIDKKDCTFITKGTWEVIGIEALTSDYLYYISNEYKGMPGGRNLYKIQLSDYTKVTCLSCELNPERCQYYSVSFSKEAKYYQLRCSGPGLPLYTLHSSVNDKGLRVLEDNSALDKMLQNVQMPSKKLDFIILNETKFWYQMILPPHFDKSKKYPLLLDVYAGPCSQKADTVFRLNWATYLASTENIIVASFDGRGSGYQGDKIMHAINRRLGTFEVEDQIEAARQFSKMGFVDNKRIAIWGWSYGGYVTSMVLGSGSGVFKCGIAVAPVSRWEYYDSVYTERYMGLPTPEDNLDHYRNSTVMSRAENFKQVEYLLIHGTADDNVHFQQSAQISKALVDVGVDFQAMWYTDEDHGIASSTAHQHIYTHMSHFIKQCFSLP

On to `N[C@H](C(=O)N1CCCC1)[C@H]1CC[C@H](NC(=O)c2cnccn2)CC1` [reference compound], for which the Papp A→B (as a rule, how fast a substance crosses the layer from the apical side) at 2.5 h, 2 μM in data set [1] came to 1.1 ×10⁻⁶ cm/s.
The same measure, in the same setting: in the case of `Cc1cnc(C(=O)N[C@H]2CC[C@H]([C@H](N)C(=O)N3CCCC3)CC2)cn1` [reference compound] it was 0.7 ×10⁻⁶ cm/s.
For the compound `Nc1nccnc1C(=O)N[C@H]1CC[C@H]([C@H](N)C(=O)N2CCCC2)CC1` [Example 18, (S)-3-amino-pyrazine-2-carboxylic acid [trans-4-(1-Amino-2-oxo-2-pyrrolidin-1-yl-ethyl)-cyclohexyl]-amide], the IC50 in data set [2] is at most 100 nM. Moreover, the Papp A→B at 2.5 h, 2 μM in data set [1] is 4.8 ×10⁻⁶ cm/s.
On to `Nc1nccnc1C(=O)N[C@H]1CC[C@H]([C@H](N)C(=O)N2CCSC2)CC1` (as salt: hydrochloride) [Example 35, (S)-3-amino-pyrazine-2-carboxylic acid [trans-4-(1-amino-2-oxo-2-thiazolidin-3-yl-ethyl)-cyclohexyl]-amide], for which the melting point (commonly the temperature of the solid-liquid transition) was in the range of 133.4 to 134.7 °C.
Regarding `N[C@H](C(=O)N1CCCC1)[C@H]1CC[C@H](N2C(=O)c3ccncc3C2=O)CC1` [Example 23, 2-[trans-4-((1S)-1-amino-2-oxo-2-pyrrolidin-1-yl-ethyl)-cyclohexyl]-pyrrolo[3,4-c]pyridine-1,3-dione], the IC50 in data set [2] was 18 nM and ≤ 100 nM. Also, the “percent (%) inhibition of glucose excursion” value in data set [3] (oral dose level of 5 mg/kg, plasma glucose at t=45 minutes) is “about 65%”.
For `N[C@H](C(=O)N1CCCC1)[C@H]1CC[C@H](NC(=O)c2nccnc2NCCc2ccccc2)CC1` [Example 27], the IC50 in data set [2] is at most 100 nM. Further, the Papp A→B at 2.5 h, 2 μM in data set [1] came to 6.2 ×10⁻⁶ cm/s.
In the case of `Cc1cc(C)n2cnc(C(=O)N[C@H]3CC[C@H]([C@H](N)C(=O)N4CCC[C@H]4C#N)CC3)cc12` [Example 59, N-(trans-4-{(1S)-1-amino-2-[(2S)-2-cyanopyrrolidin-1-yl]-2-oxoethyl}cyclohexyl)-5,7-dimethylpyrrolo[1,2-c]pyrimidine-3-carboxamide], the IC50 in data set [2] is at most 100 nM.
Take `CN(CC(=O)N[C@H]1CC[C@H]([C@H](N)C(=O)N2CCC[C@H]2C#N)CC1)C(=O)OCc1ccccc1` [Example 37, ({trans-4-[(1S)-1-amino-2-((2S)-2-cyano-pyrrolidin-1-yl)-2-oxo-ethyl]-cyclohexylcarbamoyl}-methyl)-methyl-carbamic acid benzyl ester]: the IC50 in data set [2] is at most 100 nM.
On the same count and under the same terms, in the case of `N[C@H](C(=O)N1CCCC1)[C@H]1CC[C@H](NC(=O)[C@@H]2COCN2C(=O)OCc2ccccc2)CC1` [Example 11, (4S)-4-[trans-4-((1S)-1-amino-2-oxo-2-pyrrolidin-1-yl-ethyl)-cyclohexylcarbamoyl]-oxazolidine-3-carboxylic acid benzyl ester] it was at most 100 nM.
For the compound `N[C@H](C(=O)N1CCCC1)[C@H]1CC[C@H](NC(=O)[C@@H]2C[C@@H](O)CN2C(=O)NCc2ccccc2)CC1` [Example 26, (2S,4R)-4-hydroxy-pyrrolidine-1,2-dicarboxylic acid 2-{[trans-4-((1S)-1-Amino-2-oxo-2-pyrrolidin-1-yl-ethyl)-cyclohexyl]-amide}1-benzylamide], the IC50 in data set [2] was at most 100 nM. Further, the “glucose lowering / inhibition of glucose excursion (in words)” value in data set [3] (oral dosing, dose not stated) is “did not demonstrate inhibition”.
Turning to `Nc1ncccc1C(=O)N[C@H]1CC[C@H]([C@H](N)C(=O)N2CCCC2)CC1` [Example 38, (S)-2-amino-N-[trans-4-(1-amino-2-oxo-2-pyrrolidin-1-yl-ethyl)-cyclohexyl]-nicotinamide], the IC50 in data set [2] was at most 100 nM.
Turning to `N[C@H](C(=O)N1CCCC1)[C@H]1CC[C@@H](NC(=O)[C@@H]2CCCN2C(=O)OCc2ccccc2)CC1` [Example 3, (2S)-2-[cis-4-(1-(1S)-amino-2-oxo-2-pyrrolidin-1-yl-ethyl)-cyclohexylcarbamoyl]-pyrrolidine-1-carboxylic acid benzyl ester], the IC50 in data set [2] is above 500 nM.
On to `Nc1nccnc1C(=O)N[C@H]1CC[C@H]([C@H](N)C(=O)N2CC[S+]([O-])C2)CC1` (stereo partly drawn) [Example 49, 3-amino-pyrazine-2-carboxylic acid {trans-4-[(1S)-1-amino-2-oxo-2-(1-oxo-1×4-thiazolidin-3-yl)-ethyl]-cyclohexyl}-amide], for which the IC50 in data set [2] is 100 to 500 nM.
As for `N[C@H](C(=O)N1CCCC1)[C@H]1CC[C@@H](NC(=O)CNC(=O)OCc2ccccc2)CC1` [Example 2, {[cis-4-((1S)-1-amino-2-oxo-2-pyrrolidin-1-yl-ethyl)-cyclohexylcarbamoyl]-methyl}-carbamic acid benzyl ester], the IC50 in data set [2] is above 500 nM.
Same read-out and setting: in the case of `N[C@H](C(=O)N1CC[C@@H](F)C1)[C@H]1CC[C@H](NC(=O)c2cccc(O)n2)CC1` [Example 52, 6-hydroxy-pyridine-2-carboxylic acid {trans-4-[(1S)-1-amino-2-((3R)-3-fluoro-pyrrolidin-1-yl)-2-oxo-ethyl]-cyclohexyl}-amide] it was at most 100 nM.

Source of the values: patent US20050234065A1, “Dipeptidyl peptidase-IV inhibitors” (Pfizer Inc, priority 2004, published 2005).
